Tests used:
Assay in all cases: viability relative to DMSO control (fraction); higher = less drug effect (more viable cells)
Settings in all cases: 48 h
Pralatrexate = compound: C#CCC(Cc1cnc2nc(N)nc(N)c2n1)c1ccc(C(=O)N[C@@H](CCC(=O)O)C(=O)O)cc1 [Pralatrexate]
In short: (§1)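 Viability was measured as CellTiter-Glo luminescence relative to the median of 16 inner DMSO wells. Primary mononuclear tumour cells, fresh or cryopreserved, were Ficoll-isolated from blood or bone marrow or taken from processed lymph node. They were seeded at 4 × 10^4 cells per well into 384-well plates holding pre-plated compounds at five concentrations, one well each, and kept in RPMI-1640 with penicillin/streptomycin, L-glutamine and human serum at 37 °C and 5% CO2 for 48 h.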

Pacritinib = compound: C1=N/C2=N/c3ccc(OCCN4CCCC4)c(c3)COC/C=C/COCc3cccc(c3)C(=C1)N2 [Pacritinib]
In short: as §1

Nilotinib = compound: Cc1cn(-c2cc(NC(=O)c3ccc(C)c(Nc4nccc(-c5cccnc5)n4)c3)cc(C(F)(F)F)c2)cn1 [Nilotinib]
In short: as §1

AZD7762 = compound: NC(=O)Nc1cc(-c2cccc(F)c2)sc1C(=O)N[C@H]1CCCNC1 [AZD7762]
In short: as §1

Test System	viability (Pralatrexate; 0.024 µM)	viability (Pralatrexate; 0.12 µM)	viability (Pralatrexate; 0.6 µM)	viability (Pralatrexate; 3 µM)	viability (Pralatrexate; 15 µM)	viability (Pacritinib; 0.024 µM)	viability (Pacritinib; 0.12 µM)	viability (Pacritinib; 0.6 µM)	viability (Pacritinib; 3 µM)	viability (Pacritinib; 15 µM)	viability (Nilotinib; 0.016 µM)	viability (Nilotinib; 0.08 µM)	viability (Nilotinib; 0.4 µM)	viability (Nilotinib; 2 µM)	viability (Nilotinib; 10 µM)	viability (AZD7762; 0.024 µM)	viability (AZD7762; 0.12 µM)	viability (AZD7762; 0.6 µM)	viability (AZD7762; 3 µM)	viability (AZD7762; 15 µM)
primary MCL patient cells (S041)	0.779	0.713	0.724	0.721	0.733	1.06	1.01	0.891	0.135	0.0153	1.12	1.14	1.09	1.09	1.12	0.732	0.648	0.586	0.383	0.158
primary AML patient cells (S011)	1	0.92	0.93	1.04	1.05	1.07	1.04	0.921	0.245	0.0204	1.15	1.18	1.09	1.13	1.15	0.887	0.817	0.596	0.234	0.169
primary AML patient cells (S081)	1.02	0.957	0.932	0.971	0.964	1.04	1.12	0.949	0.514	0.0165	1.17	1.03	1.16	1.12	1.2	0.821	0.451	0.448	0.225	0.0731
primary AML patient cells (S037)	1.21	0.971	0.96	1.03	0.986	0.99	1.13	1.02	0.885	0.315	1.11	1.13	1.07	1.08	1.14	0.885	1.12	0.857	1.17	0.911
primary AML patient cells (S017)	0.979	0.952	1.05	1.04	1.1	1.02	1.17	0.992	0.378	0.028	1.14	0.991	1.12	1.06	1.12	0.796	0.602	0.519	0.509	0.391

From the supplement of paper PMC10733146
